Patent publication US11072588B2, “Barbituric acid derivatives comprising cationic and lipophilic groups” (UNIVERSITETET I TROMSØ—NORGES ARKTISKE UNIVERSITET, priority 2017, dated 2021)
In brackets after ≈: the same amount, converted by molar mass. Like-named read-outs stand apart in the source and are kept apart here.

How the values were obtained:
[1] = tested on: A. baumanii K12-21; assay: MIC, multi-resistant clinical isolate; type: cell-based, Acinetobacter baumannii; details: for MIC: Acinetobacter baumannii, K1221, read-out: Antimicrobial activity (MIC); for selectivity index (EC50/MIC): RBC EC50 / MIC
Protocol: (§1) Working solutions of the test derivatives were prepared with up to 100% DMSO and stored at −20° C. If necessary, the solutions were heated to 40-80° C. before testing to facilitate complete dissolution. Double-distilled water was used in all dilutions prepared. […] A microdilution susceptibility test was used for MIC determination according to Clinical and Laboratory Standards Institute, “Methods for Dilution Antimicrobial Sisceptibility Tests for Bacteria That Graw Aerobically”, Approved Standard M07-A9, edition 2012, with modifications as described by Igumnova et al (Bioorg Med Chem, 2016, 24 (22), 5884-5894).
(§2) Briefly, the bacterial inoculum was adjusted to approximately 2.5-3×10^4 cells/mL in Mueller-Hinton broth (MHB, Difco Laboratories, USA), and incubated in a ratio of 1:1 with test derivatives in polystyrene 96-well flat-bottom microplates (NUNC, Roskilde, Denmark). Positive growth control (without test derivatives) and negative control (without bacteria) were included. The reference antibiotic was oxytetracycline hydrochloride (Sigma Aldrich, Saint Louis, Mo., USA). The microplates were incubated in an EnVision microplate reader (Perkin-Elmer, Turku, Finland) placed in an incubator set to 35° C. for 48 h. The MIC value was defined as the lowest concentration of derivative resulting in no bacterial growth as determined by OD600 measurement. All derivatives were tested in three parallels.
(§3) The MIC was determined as explained above with some exceptions; working solutions of test derivatives were prepared from concentrated DMSO stocks stored at room temperature, the density of the bacterial inoculum was increased 40× to 1-1.2×10^6 cells/mL, enterococci were incubated in Brain Heart Infusion broth (BHIB, Difco Laboratories, USA), the microplates were incubated for 24 h, and the derivatives were tested in four parallels.

[2] = tested on: A. baumanii K63-58; assay: MIC, multi-resistant clinical isolate; type: cell-based, Acinetobacter baumannii; details: A. baumanii K63-58, resistant to colistin; for MIC: Acinetobacter baumannii, K6358, 24 h, read-out: Antimicrobial activity (MIC); for selectivity index (EC50/MIC): RBC EC50 / MIC
Protocol: as §1, §2, §3

[3] = tested on: A. baumanii K55-13; assay: MIC, multi-resistant clinical isolate; type: cell-based, Acinetobacter baumannii; details: for MIC: Acinetobacter baumannii, K5513, read-out: Antimicrobial activity (MIC); for selectivity index (EC50/MIC): RBC EC50 / MIC
Protocol: as §1, §2, §3

[4] = tested on: S. epidermidis; assay: Anti-biofilm activity (inhibition of biofilm formation); type: cell-based; details: Staphylococcus epidermidis, read-out: Anti-biofilm IC50
[5] = tested on: Pseudomonas aeruginosa PA01, DSM 19880 (ATCC 15692); assay: MIC assay, antibiotic susceptible reference strain; type: cell-based; details: Pseudomonas aeruginosa, read-out: Antimicrobial activity (MIC) P. a
Protocol: as §1, §2

[6] = tested on: Staphylococcus aureus ATCC 9144; assay: MIC assay, antibiotic susceptible reference strain; type: cell-based; details: Staphylococcus aureus, ATCC9144, read-out: Antimicrobial activity (MIC) S. a
Protocol: as §1, §2

[7] = tested on: Escherichia coli ATCC 25922; assay: MIC assay, antibiotic susceptible reference strain; type: cell-based; details: Escherichia coli, ATCC25922, read-out: Antimicrobial activity (MIC) E. c
Protocol: as §1, §2

[8] = tested on: Corynebacterium glutamicum ATCC 13032; assay: MIC assay, antibiotic susceptible reference strain; type: cell-based; details: Corynebacterium glutamicum, ATCC13032, read-out: Antimicrobial activity (MIC) C. g
Protocol: as §1, §2

[9] = tested on: human metastatic melanoma (A2058, ATCC CRL-11147) cells; assay: Anti-cancer activity against A2058 cells; type: cell-based; details: A2058, read-out: Anti-cancer IC50
Protocol: Cytotoxicity of the test compounds was evaluated after 72 hour exposure to human metastatic melanoma (A2058, ATCC CRL-11147) cells.
A2058 cells were grown overnight (2,000 cells/well), and then incubated with the test compounds (range of concentrations) diluted in MEM Earle's supplemented with gentamycin (10 μg/mL), non-essential amino acids (1%), sodium pyruvate (1 mM), L-alanyl-Lglutamine (2 mM), but without FBS (total volume was 100 μl) for […]. Ten μL of CellTiter 96® AQueous One Solution Reagent (Promega, Madison, Wis., USA) was added, and the plates were then further incubated for 1 hour.
Absorbance was measured at 485 nm in a DTX 880 Multimode Detector. Results were calculated as % survival compared to negative (assay media) and positive (Triton X-100; Sigma-Aldrich) controls.

[10] = tested on: E. coli 50857972; assay: MIC, multi-resistant clinical isolate; type: cell-based, Escherichia coli; details: for MIC: Escherichia coli, read-out: Antimicrobial activity (MIC); for selectivity index (EC50/MIC): RBC EC50 / MIC
Protocol: as §1, §2, §3

[11] = tested on: E. coli 50639799; assay: MIC, multi-resistant clinical isolate; type: cell-based, Escherichia coli; details: for MIC: Escherichia coli, read-out: Antimicrobial activity (MIC); for selectivity index (EC50/MIC): RBC EC50 / MIC
Protocol: as §1, §2, §3

[12] = tested on: E. coli 50739822; assay: MIC, multi-resistant clinical isolate; type: cell-based, Escherichia coli; details: for MIC: Escherichia coli, read-out: Antimicrobial activity (MIC); for selectivity index (EC50/MIC): RBC EC50 / MIC
Protocol: as §1, §2, §3

[13] = tested on: E. coli 50579417; assay: MIC, multi-resistant clinical isolate; type: cell-based, Escherichia coli; details: for MIC: Escherichia coli, read-out: Antimicrobial activity (MIC); for selectivity index (EC50/MIC): RBC EC50 / MIC
Protocol: as §1, §2, §3

[14] = tested on: E. coli 50676002; assay: MIC, multi-resistant clinical isolate; type: cell-based, Escherichia coli; details: E. coli 50676002; for MIC: Escherichia coli, read-out: Antimicrobial activity (MIC); for selectivity index (EC50/MIC): RBC EC50 / MIC
Protocol: as §1, §2, §3

[15] = tested on: E. faecium K36-18; assay: MIC, multi-resistant clinical isolate; type: cell-based, Enterococcus faecium; details: for MIC: Enterococcus faecium, K3618, read-out: Antimicrobial activity (MIC); for selectivity index (EC50/MIC): RBC EC50 / MIC, E. faecium K36-18
Protocol: as §1, §2, §3

[16] = tested on: E. faecium TUH50-22; assay: MIC, multi-resistant clinical isolate; type: cell-based, Enterococcus faecium; details: for MIC: Enterococcus faecium, TUH5022, read-out: Antimicrobial activity (MIC); for selectivity index (EC50/MIC): RBC EC50 / MIC
Protocol: as §1, §2, §3

[17] = tested on: E. faecium 50673722; assay: MIC, multi-resistant clinical isolate; type: cell-based, Enterococcus faecium; details: for MIC: Enterococcus faecium, read-out: Antimicrobial activity (MIC); for selectivity index (EC50/MIC): RBC EC50 / MIC
Protocol: as §1, §2, §3

[18] = tested on: E. faecium 50758899; assay: MIC, multi-resistant clinical isolate; type: cell-based, Enterococcus faecium; details: for MIC: Enterococcus faecium, read-out: Antimicrobial activity (MIC); for selectivity index (EC50/MIC): RBC EC50 / MIC
Protocol: as §1, §2, §3

[19] = tested on: E. faecium 50901530; assay: MIC, multi-resistant clinical isolate; type: cell-based, Enterococcus faecium; details: for MIC: Enterococcus faecium, read-out: Antimicrobial activity (MIC); for selectivity index (EC50/MIC): RBC EC50 / MIC
Protocol: as §1, §2, §3

[20] = tested on: panel of 30 multi-resistant clinical isolates of Gram-positive and Gram-negative bacteria; assay: MIC screening, ranges over the panel of clinical isolates; type: cell-based
Protocol: as §1, §2, §3

With `N=C(N)NCCCCN1C(=O)N(CCCCNC(=N)N)C(=O)C(Cc2cc(Br)cc(Br)c2)(Cc2cc(Br)cc(Br)c2)C1=O` [8(ii), 1,1′-(4,4′-(5,5-bis(3,5-dibromobenzyl)-2,4,6-trioxodihydropyrimidine-1,3(2H,4H)-diyl)bis(butane-4,1-diyl))diguanidine] the MIC [1] was 4 µg/mL (≈ 4.7 µM), the “selectivity index (EC50/MIC)” value [1] was “(14)” and the MIC [2] was 4 µg/mL (≈ 4.7 µM). The “selectivity index (EC50/MIC)” value [2] was “(14)”, the MIC [3] was 8 µg/mL (≈ 9.41 µM) and the “selectivity index (EC50/MIC)” value [3] was “(7)”. For the same molecule, the IC50 [4] was 1 µg/mL (≈ 1.18 µM), the MIC [5] was 4 µg/mL (≈ 4.7 µM) and the MIC [6] was 1 µg/mL (≈ 1.18 µM). It also gave an MIC [7] of 2 µg/mL (≈ 2.35 µM), an MIC [8] of 0.25 µg/mL (≈ 0.294 µM) and an IC50 [9] of 2 µg/mL (≈ 2.35 µM). For the same molecule, the MIC [10] was 4 µg/mL (≈ 4.7 µM), the “selectivity index (EC50/MIC)” value [10] was “(14)” and the MIC [11] was 4 µg/mL (≈ 4.7 µM). The “selectivity index (EC50/MIC)” value [11] was “(14)”, the MIC [12] was 4 µg/mL (≈ 4.7 µM) and the “selectivity index (EC50/MIC)” value [12] was “(14)”. For the same molecule, the MIC [13] was 4 µg/mL (≈ 4.7 µM), the “selectivity index (EC50/MIC)” value [13] was “(14)” and the MIC [14] was 4 µg/mL (≈ 4.7 µM). The “selectivity index (EC50/MIC)” value [14] was “(14)”, the MIC [15] was 4 µg/mL (≈ 4.7 µM) and the “selectivity index (EC50/MIC)” value [15] was “(14)”. For the same molecule, the MIC [16] was 2 µg/mL (≈ 2.35 µM), the “selectivity index (EC50/MIC)” value [16] was “(28)” and the MIC [17] was 4 µg/mL (≈ 4.7 µM). The “selectivity index (EC50/MIC)” value [17] was “(14)”, the MIC [18] was 4 µg/mL (≈ 4.7 µM) and the “selectivity index (EC50/MIC)” value [18] was “(14)”. For the same molecule, the MIC [19] was 2 µg/mL (≈ 2.35 µM), the “selectivity index (EC50/MIC)” value [19] was “(28)” and the MIC ([20]; read-out: MIC values against all the 30 multi-resistant clinical isolates) was 2 to 16 µg/mL (≈ 2.35 to 18.8 µM).
In the case of `N=C(N)NCCCCN1C(=O)N(CCCCNC(=N)N)C(=O)C(Cc2ccc3ccccc3c2)(Cc2ccc3ccccc3c2)C1=O` [8(iv), 1,1′-(4,4′-(5,5-bis(naphthalen-2-ylmethyl)-2,4,6-trioxodihydropyrimidine-1,3(2H,4H)-diyl)bis(butane-4,1-diyl))-diguanidine], the MIC [1] is reported as 32 µg/mL (≈ 50.4 µM), the “selectivity index (EC50/MIC)” value [1] is reported as “(4)” and the MIC [2] is reported as 32 µg/mL (≈ 50.4 µM). The “selectivity index (EC50/MIC)” value [2] was “(4)”, the MIC [3] was 32 µg/mL (≈ 50.4 µM) and the “selectivity index (EC50/MIC)” value [3] was “(4)”. For the same molecule, the IC50 [4] was 1 µg/mL (≈ 1.58 µM), the MIC [5] was 8 µg/mL (≈ 12.6 µM) and the MIC [6] was 1 µg/mL (≈ 1.58 µM). It also gave an MIC [7] of 1 µg/mL (≈ 1.58 µM), an MIC [8] of 0.25 µg/mL (≈ 0.394 µM) and an IC50 [9] of 8 µg/mL (≈ 12.6 µM). The MIC [10] was 8 µg/mL (≈ 12.6 µM), the “selectivity index (EC50/MIC)” value [10] was “(17)” and the MIC [11] was 8 µg/mL (≈ 12.6 µM). For the same molecule, the “selectivity index (EC50/MIC)” value [11] was “(17)”, the MIC [12] was 8 µg/mL (≈ 12.6 µM) and the “selectivity index (EC50/MIC)” value [12] was “(17)”. For the same molecule, the MIC [13] was 16 µg/mL (≈ 25.2 µM), the “selectivity index (EC50/MIC)” value [13] was “(8)” and the MIC [14] was 8 µg/mL (≈ 12.6 µM). The “selectivity index (EC50/MIC)” value [14] was “(17)”, the MIC [15] was 16 µg/mL (≈ 25.2 µM) and the “selectivity index (EC50/MIC)” value [15] was “(8)”. For the same molecule, the MIC [16] was 8 µg/mL (≈ 12.6 µM), the “selectivity index (EC50/MIC)” value [16] was “(17)” and the MIC [17] was 16 µg/mL (≈ 25.2 µM). The “selectivity index (EC50/MIC)” value [17] was “(8)”, the MIC [18] was 16 µg/mL (≈ 25.2 µM) and the “selectivity index (EC50/MIC)” value [18] was “(8)”. The MIC [19] was 8 µg/mL (≈ 12.6 µM), the “selectivity index (EC50/MIC)” value [19] was “(17)” and the MIC ([20]; Enterococcus faecium, read-out: MIC values against the Gram-positive isolates of S. aurues and E. faecium) was 8 to 16 µg/mL (≈ 12.6 to 25.2 µM).
